According to patent US8937090B2, “Parakeratosis inhibitor, pore-shrinking agent and external composition for skin” (Shiseido Company, Ltd., priority 2005, dated 2015):

Key:
hairless mouse (HR-1) = assay: Parakeratosis-inhibiting effect test (oleic acid applied to back of hairless mouse; visual rough skin evaluation and parakeratosis value); format: in vivo; conditions: for parakeratosis-inhibiting effect: in words, summary of Table 1; for Visual evaluation (average of four animals): rough skin score, control = 2.0, no skin roughness = 0.0, 3 days application after 10 mass % oleic acid; for Parakeratosis value (average of four animals): scale 1.0 to 3.0, higher = parakeratosis advanced, control 2.0
Description: Aqueous solutions (containing 30 mass % of ethanol) of 3 mass % of a β-alanine derivative or salt thereof were prepared mainly as the evaluation sample. The pH was regulated by hydrochloric acid or sodium hydroxide so as to be 7.0 to 7.5. When sample solubility was low, the solution was prepared accordingly.
100 μL of 10 mass % oleic acid solution (solvent: ethanol) were applied to the back of a hairless mouse (HR-1; Hoshino Laboratory Animals). Then the sample solution (β-alanine derivative, and the like) was applied 100 μL at a time. This procedure was continued for three days. […] At the same time, the stratum corneum at the back of the hairless mouse was peeled off with tape, the nuclei were stained by hematoxylin, and the degree of parakeratosis was observed and evaluated by a parakeratosis value within a range of 1.0 to 3.0 (in 0.25 increments).

[1] = tested on: cheeks of healthy human males; assay: Human pore-shrinking effect (replica of cheek pores, three-dimensional laser scanning microscope); format: in vivo; conditions: for pore-shrinking effect: in words, summary of Table 2; for Replica assessment value (average of n = 5): twice a day for one month, pore size rating (1-13) after minus before application, control 0.3
Description: An experiment was conducted whereby a sample was applied twice a day for one month to the cheeks of healthy human males in groups of 5 men each. Aqueous solutions (containing 15 mass % of ethanol) of 3 mass % of the β-alanine derivative or a salt thereof were prepared mainly as the evaluation sample. The pH was regulated by hydrochloric acid or sodium hydroxide so as to be 7.0 to 7.5. When the sample solubility was low, the solution was prepared accordingly. The control was an aqueous 15% ethanol solution. The sample aqueous solution and the control aqueous solution were applied to one half of the face at a time.
A replica was collected before and after continuous application, and changes in the shape of the pores at the same site were observed using a three-dimensional laser scanning microscope. The size of the pores was visually evaluated in the 13 steps of 1 through 13 (with the pores becoming larger as the numbers became larger), the difference in the ratings before and after application (after application—before application) was calculated, and the efficacy of each sample was studied using this difference as the replica assessment value.

hairless mice (HR-1) = assay: Inhibiting effect on rough skin induced by oleic acid application (transepidermal water loss); format: in vivo, mouse; design: ΔTEWL value: unit not given here; conditions: for rough skin preventing/ameliorating effect (ΔTEWL value versus control aqueous solution): in words, summary of Table 3; for ΔTEWL value: average of four mice, 3 days after 10 mass % oleic acid, control 12.0, increase = rough skin worse
Description: In order to investigate the inhibiting effect of β-alanine derivatives and salts thereof on rough skin induced by oleic acid application, the transepidermal water loss (TEWL value) before and after application was measured, the difference was compared with the control (control aqueous solution), and the effect was determined. […] The TEWL was determined using the TM210 TEWA Meter (Courage+Khazaka Electronic GmBH).
100 μL of 10 mass % oleic acid (solvent: ethanol) was applied to the back of hairless mice (HR-1, four mice per group). Then a sample solution (β-alanine derivatives) was applied 100 μL at a time. This procedure was continued for three days. On the following day, the TEWL value of the back was determined and the values of the four animals were averaged.

panel of 20 women = assay: Sensory irritation tests; format: in vivo, human; conditions: for sensory irritation: in words, summary of Table 4; for Evaluation (sensory irritation, class of average rating): 1 mL to cheek, rated for ten minutes
Description: 1 mL of a control aqueous solution and the sample aqueous solution prepared in Example 1 were applied using a cotton swab to the left or right cheek, respectively, of each member of a panel of 20 women, and the irritating sensation was evaluated every 30 seconds for ten minutes beginning immediately after application, whereby a final evaluation was reported. The evaluation of the irritating sensation was made based on the following four levels of rating criteria, and the average rating was calculated, whereby the average was classified by the following criteria.
3: Continuation is not possible because of extremely strong irritation, such as tingling sensation, burning sensation, stinging sensation, itching, and the like.
2: Intolerable because of strong irritation, such as tingling sensation, burning sensation, stinging sensation, itching, and the like.
1: Tolerable, but with slight irritation such as tingling sensation, burning sensation, stinging sensation, itching, and the like.
0: Not particularly irritating.
(Evaluation Criteria) • A: average rating of less than 0.2 • B: average rating of from 0.2 to less than 1.0 • C: average rating of from 1.0 to less than 2.0 • D: average rating of 2.0 or greater

Row | SMILES | parakeratosis-inhibiting effect (hairless mouse (HR-1)) | Visual evaluation (average of four animals) (hairless mouse (HR-1); sample 3 mass %) | Parakeratosis value (average of four animals) (hairless mouse (HR-1); sample 3 mass %) | pore-shrinking effect [1] | Replica assessment value (average of n = 5) ([1]; sample 3 mass %) | rough skin preventing/ameliorating effect (ΔTEWL value versus control aqueous solution) (hairless mice (HR-1)) | ΔTEWL value (hairless mice (HR-1); sample 3 mass %) | sensory irritation (panel of 20 women) | Evaluation (sensory irritation, class of average rating) (panel of 20 women; sample 3 mass %) | Visual evaluation (average of four animals) (hairless mouse (HR-1); sample 1.5 mass %) | Parakeratosis value (average of four animals) (hairless mouse (HR-1); sample 1.5 mass %) | Replica assessment value (average of n = 5) ([1]; sample 1.0 mass %) | ΔTEWL value (hairless mice (HR-1); sample 1.5 mass %) | Evaluation (sensory irritation, class of average rating) (panel of 20 women; sample 1.5 mass %) | Visual evaluation (average of four animals) (hairless mouse (HR-1); sample 1 mass %) | Parakeratosis value (average of four animals) (hairless mouse (HR-1); sample 1 mass %) | ΔTEWL value (hairless mice (HR-1); sample 1 mass %) | Evaluation (sensory irritation, class of average rating) (panel of 20 women; sample 1 mass %)
1 | O=C(O)CCNCC1CCCCC1 [N-cyclohexylmethyl-β-alanine] | reduced the parakeratosis value | 1.1 | 1.1 | effect was seen | −0.8 | effect was seen | 8.9 | no problem of sensory irritation | A (average rating of less than 0.2) | – | – | – | – | – | – | – | – | –
2 | COc1ccc(C(=O)NCCC(=O)O)cc1 [N-(4′-methoxybenzoyl)-β-alanine] | reduced the parakeratosis value | – | – | effect was seen | – | effect was seen | – | no problem of sensory irritation | – | 1.2 | 1.1 | −1.2 | 5.7 | A (average rating of less than 0.2) | – | – | – | –
3 | C[C@H](N)C(=O)O [alanine, reference compound] | – | – | – | – | – | – | – | strong sensory irritation | D (average rating of 2.0 or greater) | – | – | – | – | – | – | – | – | –
4 | O=C(O)CCNS(=O)(=O)c1ccccc1 [N-benzenesulfonyl-β-alanine] | reduced the parakeratosis value | 1.1 | 1.2 | effect was seen | −0.7 | effect was seen | 5.4 | no problem of sensory irritation | A (average rating of less than 0.2) | – | – | – | – | – | – | – | – | –
5 | COc1cccc(C(=O)NCCC(=O)O)c1 [N-(3′-methoxybenzoyl)-β-alanine] | reduced the parakeratosis value | 1.2 | 1.2 | effect was seen | −1.0 | effect was seen | 6.9 | no problem of sensory irritation | A (average rating of less than 0.2) | – | – | – | – | – | – | – | – | –
6 | O=C(O)CCNC1CCCCC1 [N-cyclohexyl-β-alanine] | reduced the parakeratosis value | 1.1 | 1.1 | effect was seen | −0.9 | effect was seen | 9.0 | no problem of sensory irritation | – | – | – | – | – | – | – | – | – | –
7 | O=C(O)CCNc1ccccn1 [N-(2′-pyridyl)-β-alanine] | reduced the parakeratosis value | 1.4 | 1.3 | effect was seen | −0.8 | effect was seen | 5.5 | no problem of sensory irritation | A (average rating of less than 0.2) | – | – | – | – | – | – | – | – | –
8 | O=C(O)CCNC(=O)c1cccnc1 [N-nicotinoyl-β-alanine] | reduced the parakeratosis value | – | – | effect was seen | – | effect was seen | – | no problem of sensory irritation | – | – | – | −0.8 | – | – | 1.1 | 1.2 | 6.0 | A (average rating of less than 0.2)
9 | COc1cc(C(=O)NCCC(=O)O)cc(OC)c1OC [N-(3′,4′,5′-trimethoxybenzoyl)-β-alanine] | reduced the parakeratosis value | 1.1 | 1.1 | effect was seen | −0.6 | effect was seen | 6.9 | no problem of sensory irritation | A (average rating of less than 0.2) | – | – | – | – | – | – | – | – | –
10 | NC(=O)NCCC(=O)O [3-ureidopropionic acid, reference compound] | effect was not seen | 2.0 | 2.2 | – | – | no effect was seen | 11.9 | – | – | – | – | – | – | – | – | – | – | –
11 | N=C(N)NCCC(=O)O [3-guanidinopropionic acid, reference compound] | effect was not seen | 2.1 | 2.1 | – | – | no effect was seen | 12.3 | – | – | – | – | – | – | – | – | – | – | –
12 | CC(=O)NCCC(=O)O [N-acetyl-β-alanine, reference compound] | effect was not seen | 1.8 | 1.7 | – | – | no effect was seen | 12.1 | – | – | – | – | – | – | – | – | – | – | –
